Laboratory results from PubChem BioAssay (NCI).
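Interpolation was linear, between the two tested concentrations surrounding the appropriate level; five concentrations were tested over 48 hours in 96-well plates. GI50 is the concentration that inhibits growth by half. TGI: concentration producing complete growth inhibition.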

These compounds were tested on 786-0 renal (assay: inhibition of tumour cell growth, NCI panel, 48 h).
`Oc1ccccc1CNCc1nc2ccccc2[nH]1` showed a TGI of over 100 µM. `COc1ncc(/C=C2\OC(=O)c3ccccc32)c(OC)n1` gave a TGI of over 100 µM. In the case of `CC(=O)Nn1c(=S)[nH]c2ccccc21`, the TGI is reported as over 100 µM. `C[C@]12CCC3C4=C(CCC3C1CCC2=O)C(=O)[C@H]1O[C@H]1C4=O` (some centres not stated) was tested, and the TGI was 3.94 µM. Work on `CCCCOC(=O)Nc1ccc(S(=O)(=O)Nc2ccccc2Cl)cc1` yielded a TGI of 41.8 µM. Work on `O=[N+]([O-])c1ccc(Cl)cc1N/N=C/c1ccnc2ccccc12` yielded a TGI of over 100 µM. Work on `CC(C)c1cc2c(cc1S(=O)(=O)O)[C@@]1(C)CCC[C@@](C)(C(=O)O)C1CC2` (some centres not stated) yielded a TGI of over 100 µM. Work on `N#CC(Cc1ccccc1)N(CCC1=CCCCC1)C(c1ccccc1)c1ccccc1` (configuration not stated) yielded a TGI of over 100 µM. In the case of `C/C(=C\CBr)CCC(Br)C(C)(C)Br` (configuration not stated), the TGI is reported as over 100 µM. `C#CCn1c(=O)c2ccccc2n(CC#C)c1=O` showed a TGI of over 10 µM. Compound `[N-]=[N+]=NC(c1ccccc1)(c1ccccc1)c1ccccc1` has a TGI of 31.5 µM. For `CC(=O)c1c2c(c3ccccc3c1O)O[C@@H]1OCC[C@H]21`, the TGI was over 100 µM. With `C(=C(c1ccc(OC2CCCCO2)cc1)c1ccc(OC2CCCCO2)cc1)c1ccccc1` (configuration not stated) the TGI was 1.62 µM. Compound `CC(=O)Oc1cccc2c1C(=O)CCCC2` has a TGI of over 100 µM. Work on `O=C(c1ccccn1)C1(N2CCCCC2)CCCCC1` yielded a TGI of over 100 µM. `CCN(CC)C(=S)N/N=C/c1cc([N+](=O)[O-])ccc1O` showed a TGI of 68.9 µM. `N[C@@H](CCC(=O)NCP(=O)(O)O)C(=O)O` showed a TGI of over 100 µM. Work on `CCC(=O)NC(Nc1cc(C)on1)(C(F)(F)F)C(F)(F)F` yielded a TGI of over 100 µM. `CCC(=O)NCC1CCCN2CCCCC12` (configuration not stated) gave a TGI of over 100 µM. In the case of `Nc1nc(-c2ccccc2)nc2oc(-c3cccs3)nc12`, the TGI is reported as over 100 µM. `S=C(N/N=C(/c1ccccc1)c1ccccn1)N(Cc1ccccn1)Cc1ccccn1` showed a TGI of 2.04 µM. `Cc1oc2c(cc(O)c3cc(O)ccc32)c2cccc1-2` was tested, and the TGI was over 100 µM. `O=C(OCc1ccccc1)N1CCNCCN(C(=O)OCc2ccccc2)CCNCC1` gave a TGI of 47.9 µM. Work on `O=C(Cc1ccc(O)c(O)c1)NCc1c[nH]c2ccccc12` yielded a TGI of over 100 µM. For `COc1ccc(-n2c(C)nc3ccc(NC(=S)Nc4ccccc4)cc3c2=O)cc1`, the TGI was over 100 µM. In the case of `O=C(NCc1ccccc1)c1n[nH][nH]c1=O`, the TGI is reported as over 100 µM. `COc1cccc(C2SC(N)=Nc3c2c(C)nn3C(=O)c2ccccc2O)c1` (configuration not stated) showed a TGI of over 10 µM.

These compounds were tested on LOX IMVI melanoma (assay: inhibition of tumour cell growth, NCI panel, 48 h).
`CCOC(=O)c1c(CN2CCCC2)n(-c2ccccc2)c2cc(Br)c(O)cc12` was tested, and the TGI was 29.8 µM. For `Nn1c(-c2ccccc2)n[nH]c1=O`, the TGI was over 100 µM. For `Nn1c(Nc2ccc(S(=O)(=O)Nc3ncccn3)cc2)nnc(/C=C/c2c(O)ccc3ccccc23)c1=O`, the TGI was over 100 µM. For `Cc1cc(-c2nc3ccc(F)cc3s2)ccc1NC(=O)[C@H](C)N`, the TGI was 3.99 µM. Compound `C=CC1(CC/C(=C\[N+](=O)[O-])c2ccc(OC)c(OC)c2)OCC(C)(C)CO1` has a TGI of 55.8 µM. `Cc1cc(Nc2ccc(S(=O)(=O)O)c3cc(S(=O)(=O)O)cc(S(=O)(=O)O)c23)c2ccccc2n1` gave a TGI of over 100 µM. Compound `Cc1cc(C)nc(NS(=O)(=O)c2ccc(NC(=O)c3ccc4nc5ccccc5c(Nc5ccc(S(N)(=O)=O)cc5)c4c3)cc2)n1` has a TGI of over 100 µM. Compound `CC1(C(=O)O)CCC2(C)CCC3(C)C(=CC(=O)C4C5(C)CCC(O)C(C)(C)C5CCC43C)C2C1` (configuration not stated) has a TGI of 41.8 µM. With `NS(=O)(=O)c1nnc(NC(=O)Nc2ccc(Cl)c(Cl)c2)s1` the TGI was 36.4 µM. In the case of `COC(=O)c1c(C)nc2c1cc(O)c1[nH]c(C)c(C)nc12`, the TGI is reported as over 100 µM. For `Cn1c2ccc3cc2c(=S)c2cc(ccc21)OCCOCCOCCOCCOCCOCCO3`, the TGI was over 10 µM. `O=[N+]([O-])c1cc(C=NC23CC4CC(CC(C4)C2)C3)ccc1Cl` was tested, and the TGI was 36.9 µM. `COc1cc(S(=O)(=O)Nc2nc(-c3ccc(N4C(=O)C(CC(=O)O)SC4c4cccs4)cc3)cs2)ccc1Cl` (configuration not stated) showed a TGI of 39.3 µM. For `CCCCCC1=CC(=O)C1(Cl)Cl`, the TGI was 21.2 µM. `CC(=O)N(C(=O)CC(=O)N1N=C(c2ccccc2)C(N=Nc2ccccc2[N+](=O)[O-])C1=O)c1ccc(Cl)cc1` (configuration not stated) was tested, and the TGI was over 10 µM. With `Oc1ccccc1CNCc1nc2ccccc2[nH]1` the TGI was over 100 µM. `COc1ncc(/C=C2\OC(=O)c3ccccc32)c(OC)n1` gave a TGI of over 100 µM. Work on `CC(=O)Nn1c(=S)[nH]c2ccccc21` yielded a TGI of over 100 µM. With `C[C@]12CCC3C4=C(CCC3C1CCC2=O)C(=O)[C@H]1O[C@H]1C4=O` (some centres not stated) the TGI was 5.18 µM. Work on `CCCCOC(=O)Nc1ccc(S(=O)(=O)Nc2ccccc2Cl)cc1` yielded a TGI of 34.7 µM. For `CC(C)c1cc2c(cc1S(=O)(=O)O)[C@@]1(C)CCC[C@@](C)(C(=O)O)C1CC2` (some centres not stated), the TGI was over 100 µM. `C#CCn1c(=O)c2ccccc2n(CC#C)c1=O` showed a TGI of over 10 µM. `[N-]=[N+]=NC(c1ccccc1)(c1ccccc1)c1ccccc1` was tested, and the TGI was 45.3 µM. `CC(=O)c1c2c(c3ccccc3c1O)O[C@@H]1OCC[C@H]21` showed a TGI of over 100 µM. In the case of `C(=C(c1ccc(OC2CCCCO2)cc1)c1ccc(OC2CCCCO2)cc1)c1ccccc1` (configuration not stated), the TGI is reported as 1.14 µM. With `CC(=O)Oc1cccc2c1C(=O)CCCC2` the TGI was over 100 µM. With `O=C(c1ccccn1)C1(N2CCCCC2)CCCCC1` the TGI was over 100 µM. `CCN(CC)C(=S)N/N=C/c1cc([N+](=O)[O-])ccc1O` gave a TGI of 18.5 µM. In the case of `COc1ccc(CN2C(=O)/C(=C\c3cc(OC)c(OC)c(OC)c3)c3ccccc32)cc1`, the GI50 is reported as 1.76 µM and the TGI is reported as 3.3 µM. `CCC(=O)NC(Nc1cc(C)on1)(C(F)(F)F)C(F)(F)F` gave a TGI of over 100 µM. `CCC(=O)NCC1CCCN2CCCCC12` (configuration not stated) was tested, and the TGI was over 100 µM. In the case of `Nc1nc(-c2ccccc2)nc2oc(-c3cccs3)nc12`, the TGI is reported as over 100 µM. With `S=C(N/N=C(/c1ccccc1)c1ccccn1)N(Cc1ccccn1)Cc1ccccn1` the TGI was 1.74 µM. In the case of `Cc1oc2c(cc(O)c3cc(O)ccc32)c2cccc1-2`, the TGI is reported as over 100 µM. Work on `O=C(OCc1ccccc1)N1CCNCCN(C(=O)OCc2ccccc2)CCNCC1` yielded a TGI of 27.5 µM. Work on `COc1ccc(-n2c(C)nc3ccc(NC(=S)Nc4ccccc4)cc3c2=O)cc1` yielded a TGI of over 100 µM. Compound `COc1cccc(C2SC(N)=Nc3c2c(C)nn3C(=O)c2ccccc2O)c1` (configuration not stated) has a TGI of over 10 µM.

Each compound was assayed on U251 CNS (assay: inhibition of tumour cell growth, NCI panel, 48 h).
`CCOC(=O)c1c(CN2CCCC2)n(-c2ccccc2)c2cc(Br)c(O)cc12` gave a TGI of 30.4 µM. Compound `COc1cccc(Nc2nc(-c3cccs3)nc3cc(OC)c(OC)cc23)c1` has a TGI of 61.8 µM. Work on `Nn1c(-c2ccccc2)n[nH]c1=O` yielded a TGI of over 100 µM. `Nn1c(Nc2ccc(S(=O)(=O)Nc3ncccn3)cc2)nnc(/C=C/c2c(O)ccc3ccccc23)c1=O` was tested, and the TGI was over 100 µM. In the case of `Cc1cc(-c2nc3ccc(F)cc3s2)ccc1NC(=O)[C@H](C)N`, the TGI is reported as 9.06 µM. `C=CC1(CC/C(=C\[N+](=O)[O-])c2ccc(OC)c(OC)c2)OCC(C)(C)CO1` gave a TGI of over 100 µM. `Cc1cc(Nc2ccc(S(=O)(=O)O)c3cc(S(=O)(=O)O)cc(S(=O)(=O)O)c23)c2ccccc2n1` gave a TGI of over 100 µM. `Cc1cc(C)nc(NS(=O)(=O)c2ccc(NC(=O)c3ccc4nc5ccccc5c(Nc5ccc(S(N)(=O)=O)cc5)c4c3)cc2)n1` was tested, and the TGI was over 100 µM. `CC1(C(=O)O)CCC2(C)CCC3(C)C(=CC(=O)C4C5(C)CCC(O)C(C)(C)C5CCC43C)C2C1` (configuration not stated) gave a TGI of over 100 µM. `NS(=O)(=O)c1nnc(NC(=O)Nc2ccc(Cl)c(Cl)c2)s1` was tested, and the TGI was over 100 µM. Work on `COC(=O)c1c(C)nc2c1cc(O)c1[nH]c(C)c(C)nc12` yielded a TGI of over 100 µM. In the case of `Cn1c2ccc3cc2c(=S)c2cc(ccc21)OCCOCCOCCOCCOCCOCCO3`, the TGI is reported as over 10 µM. With `O=[N+]([O-])c1cc(C=NC23CC4CC(CC(C4)C2)C3)ccc1Cl` the TGI was 41.6 µM. For `COc1cc(S(=O)(=O)Nc2nc(-c3ccc(N4C(=O)C(CC(=O)O)SC4c4cccs4)cc3)cs2)ccc1Cl` (configuration not stated), the TGI was over 100 µM. `CCCCCC1=CC(=O)C1(Cl)Cl` was tested, and the TGI was 25.1 µM. `CC(=O)N(C(=O)CC(=O)N1N=C(c2ccccc2)C(N=Nc2ccccc2[N+](=O)[O-])C1=O)c1ccc(Cl)cc1` (configuration not stated) gave a TGI of over 10 µM. `Oc1ccccc1CNCc1nc2ccccc2[nH]1` was tested, and the TGI was over 100 µM. `COc1ncc(/C=C2\OC(=O)c3ccccc32)c(OC)n1` showed a TGI of over 100 µM. `CC(=O)Nn1c(=S)[nH]c2ccccc21` was tested, and the TGI was over 100 µM. With `C[C@]12CCC3C4=C(CCC3C1CCC2=O)C(=O)[C@H]1O[C@H]1C4=O` (some centres not stated) the TGI was 8.38 µM. With `CCCCOC(=O)Nc1ccc(S(=O)(=O)Nc2ccccc2Cl)cc1` the TGI was 36 µM. For `O=[N+]([O-])c1ccc(Cl)cc1N/N=C/c1ccnc2ccccc12`, the TGI was over 100 µM. For `CC(C)c1cc2c(cc1S(=O)(=O)O)[C@@]1(C)CCC[C@@](C)(C(=O)O)C1CC2` (some centres not stated), the TGI was over 100 µM. Work on `N#CC(Cc1ccccc1)N(CCC1=CCCCC1)C(c1ccccc1)c1ccccc1` (configuration not stated) yielded a TGI of over 100 µM. Compound `C/C(=C\CBr)CCC(Br)C(C)(C)Br` (configuration not stated) has a TGI of over 100 µM. Compound `C#CCn1c(=O)c2ccccc2n(CC#C)c1=O` has a TGI of over 10 µM. For `[N-]=[N+]=NC(c1ccccc1)(c1ccccc1)c1ccccc1`, the TGI was 29.2 µM. For `CC(=O)c1c2c(c3ccccc3c1O)O[C@@H]1OCC[C@H]21`, the TGI was over 100 µM. `C(=C(c1ccc(OC2CCCCO2)cc1)c1ccc(OC2CCCCO2)cc1)c1ccccc1` (configuration not stated) showed a TGI of 2.34 µM. For `CC(=O)Oc1cccc2c1C(=O)CCCC2`, the TGI was over 100 µM. With `O=C(c1ccccn1)C1(N2CCCCC2)CCCCC1` the TGI was over 100 µM. With `CCN(CC)C(=S)N/N=C/c1cc([N+](=O)[O-])ccc1O` the TGI was over 100 µM. Compound `COc1ccc(CN2C(=O)/C(=C\c3cc(OC)c(OC)c(OC)c3)c3ccccc32)cc1` has a GI50 of 1.56 µM and a TGI of 2.98 µM. With `N[C@@H](CCC(=O)NCP(=O)(O)O)C(=O)O` the TGI was over 100 µM. Compound `CCC(=O)NC(Nc1cc(C)on1)(C(F)(F)F)C(F)(F)F` has a TGI of over 100 µM. Work on `CCC(=O)NCC1CCCN2CCCCC12` (configuration not stated) yielded a TGI of over 100 µM. `Nc1nc(-c2ccccc2)nc2oc(-c3cccs3)nc12` was tested, and the TGI was over 100 µM. `Cc1oc2c(cc(O)c3cc(O)ccc32)c2cccc1-2` gave a TGI of over 100 µM. Work on `O=C(OCc1ccccc1)N1CCNCCN(C(=O)OCc2ccccc2)CCNCC1` yielded a TGI of 61 µM. Compound `COc1ccc(-n2c(C)nc3ccc(NC(=S)Nc4ccccc4)cc3c2=O)cc1` has a TGI of over 100 µM. `O=C(NCc1ccccc1)c1n[nH][nH]c1=O` gave a TGI of over 100 µM.
